{"source": "ChEMBL document CHEMBL3526130", "about": "“An evaluation of using rat-derived single-dose neuropharmacokinetic parameters to project accurately large animal unbound brain drug concentrations” (Drug Metab Dispos, 2012)", "key": {"[1]": {"assay": "AUC(0 to 2 hrs) in Beagle dog plasma at 0.1 mg/kg, sc by LC-MS/MS analysis", "assay_type": "ADME, organism-based, Canis lupus familiaris", "set-up": "time < 2 hr, dose 0.1 mg/kg, route subcutaneous"}, "[2]": {"assay": "AUC(0 to 1 hr) in cynomolgus monkey plasma at 0.1 mg/kg, sc by LC-MS/MS analysis", "assay_type": "ADME, organism-based, Macaca fascicularis", "set-up": "time < 1 hr, dose 0.1 mg/kg, route subcutaneous"}, "[3]": {"assay": "AUC(0 to 2 hrs) in Beagle dog cerebrospinal fluid at 0.1 mg/kg, sc by LC-MS/MS analysis", "assay_type": "ADME, organism-based, Canis lupus familiaris", "set-up": "time < 2 hr, dose 0.1 mg/kg, route subcutaneous"}, "[4]": {"assay": "AUC(0 to 2 hrs) in Sprague-Dawley rat plasma at 1 mg/kg, sc by LC-MS/MS analysis", "assay_type": "ADME, organism-based", "set-up": "time < 2 hr, dose 1 mg/kg, route subcutaneous"}, "[5]": {"assay": "AUC(0 to infinity) in Sprague-Dawley rat plasma at 1 mg/kg, sc by LC-MS/MS analysis", "assay_type": "ADME, organism-based", "set-up": "time infinity, dose 1 mg/kg, route subcutaneous"}, "[6]": {"assay": "AUC(0 to 2 hrs) in Sprague-Dawley rat cerebrospinal fluid at 1 mg/kg, sc by LC-MS/MS analysis", "assay_type": "ADME, organism-based", "set-up": "time < 2 hr, dose 1 mg/kg, route subcutaneous"}, "[7]": {"assay": "AUC(0 to infinity) in Sprague-Dawley rat cerebrospinal fluid at 1 mg/kg, sc by LC-MS/MS analysis", "assay_type": "ADME, organism-based", "set-up": "time infinity, dose 1 mg/kg, route subcutaneous"}, "[8]": {"assay": "Ratio of drug level in brain to plasma in Sprague-Dawley rat at 1 mg/kg, sc by LC-MS/MS analysis", "assay_type": "ADME, organism-based", "set-up": "dose 1 mg/kg, route subcutaneous", "details": "read-out: BPR"}, "Nucleic Acid [9]": {"tested_on": "Nucleic Acid", "assay": "Ratio of drug level in cerebrospinal fluid to unbound plasma concentration in Sprague-Dawley rat at 1 mg/kg, sc by LC-MS/MS analysis", "assay_type": "ADME, organism-based", "set-up": "dose 1 mg/kg, route subcutaneous", "details": "in vivo"}, "[10]": {"assay": "Ratio of unbound brain concentration to drug level in cerebrospinal fluid in Sprague-Dawley rat at 1 mg/kg, sc by LC-MS/MS analysis", "assay_type": "ADME, organism-based", "set-up": "dose 1 mg/kg, route subcutaneous", "details": "in vivo"}, "[11]": {"assay": "Ratio of unbound drug level in brain to plasma in Sprague-Dawley rat at 1 mg/kg, sc by LC-MS/MS analysis", "assay_type": "ADME, organism-based", "set-up": "dose 1 mg/kg, route subcutaneous"}, "[12]": {"assay": "Unbound fraction in cynomolgus monkey plasma at 0.1 mg/kg, sc by LC-MS/MS analysis", "assay_type": "ADME, organism-based, Macaca fascicularis", "set-up": "dose 0.1 mg/kg, route subcutaneous"}, "[13]": {"assay": "Unbound fraction in cynomolgus monkey brain at 0.1 mg/kg, sc by LC-MS/MS analysis", "assay_type": "ADME, organism-based, Macaca fascicularis", "set-up": "dose 0.1 mg/kg, route subcutaneous"}, "[14]": {"assay": "Unbound fraction in Beagle dog plasma at 0.1 mg/kg, sc by LC-MS/MS analysis", "assay_type": "ADME, organism-based, Canis lupus familiaris", "set-up": "dose 0.1 mg/kg, route subcutaneous"}, "[15]": {"assay": "Unbound fraction in Beagle dog brain at 0.1 mg/kg, sc by LC-MS/MS analysis"}, "[16]": {"assay": "AUC(0 to 2 hrs) in Sprague-Dawley rat brain at 1 mg/kg, sc by LC-MS/MS analysis", "assay_type": "ADME, organism-based", "set-up": "time < 2 hr, dose 1 mg/kg, route subcutaneous"}, "[17]": {"assay": "AUC(0 to infinity) in Sprague-Dawley rat brain at 1 mg/kg, sc by LC-MS/MS analysis", "assay_type": "ADME, organism-based", "set-up": "time infinity, dose 1 mg/kg, route subcutaneous"}, "[18]": {"assay": "Ratio of unbound brain concentration to drug level in cerebrospinal fluid in Beagle dog at 0.1 mg/kg, sc by LC-MS/MS analysis", "assay_type": "ADME, organism-based, Canis lupus familiaris", "set-up": "dose 0.1 mg/kg, route subcutaneous", "details": "in vivo"}, "[19]": {"assay": "Ratio of unbound drug level in brain to plasma in cynomolgus monkey at 0.1 mg/kg, sc by LC-MS/MS analysis", "assay_type": "ADME, organism-based, Macaca fascicularis", "set-up": "dose 0.1 mg/kg, route subcutaneous", "details": "brain and plasma"}, "[20]": {"assay": "Ratio of unbound drug level in brain to plasma in Beagle dog at 0.1 mg/kg, sc by LC-MS/MS analysis", "assay_type": "ADME, organism-based, Canis lupus familiaris", "set-up": "dose 0.1 mg/kg, route subcutaneous", "details": "brain and plasma"}, "[21]": {"assay": "AUC(0 to 1 hr) in cynomolgus monkey cerebrospinal fluid at 0.1 mg/kg, sc by LC-MS/MS analysis", "assay_type": "ADME, organism-based, Macaca fascicularis", "set-up": "time < 1 hr, dose 0.1 mg/kg, route subcutaneous"}, "[22]": {"assay": "AUC(0 to 2 hrs) in Beagle dog brain at 0.1 mg/kg, sc by LC-MS/MS analysis", "assay_type": "ADME, organism-based, Canis lupus familiaris", "set-up": "time < 2 hr, dose 0.1 mg/kg, route subcutaneous"}, "[23]": {"assay": "AUC(0 to 1 hr) in cynomolgus monkey brain at 0.1 mg/kg, sc by LC-MS/MS analysis", "assay_type": "ADME, organism-based, Macaca fascicularis", "set-up": "time < 1 hr, dose 0.1 mg/kg, route subcutaneous"}, "[24]": {"assay": "Ratio of drug level in brain to plasma in cynomolgus monkey at 0.1 mg/kg, sc by LC-MS/MS analysis", "assay_type": "ADME, organism-based, Macaca fascicularis", "set-up": "dose 0.1 mg/kg, route subcutaneous", "details": "brain and plasma, read-out: BPR"}, "[25]": {"assay": "Ratio of drug level in brain to plasma in Beagle dog at 0.1 mg/kg, sc by LC-MS/MS analysis", "assay_type": "ADME, organism-based, Canis lupus familiaris", "set-up": "dose 0.1 mg/kg, route subcutaneous", "details": "brain and plasma, read-out: BPR"}, "Nucleic Acid [26]": {"tested_on": "Nucleic Acid", "assay": "Ratio of drug level in cerebrospinal fluid to unbound plasma concentration in cynomolgus monkey at 0.1 mg/kg, sc by LC-MS/MS analysis", "assay_type": "ADME, organism-based, Macaca fascicularis", "set-up": "dose 0.1 mg/kg, route subcutaneous", "details": "in vivo"}, "[27]": {"assay": "Ratio of unbound brain concentration to drug level in cerebrospinal fluid in cynomolgus monkey at 0.1 mg/kg, sc by LC-MS/MS analysis", "assay_type": "ADME, organism-based, Macaca fascicularis", "set-up": "dose 0.1 mg/kg, route subcutaneous", "details": "in vivo"}}}
{"molecule": "Cc1nc2n(c(=O)c1CCN1CCC(c3noc4cc(F)ccc34)CC1)CCCC2", "note": "[RISPERIDONE]", "values": [{"measurement": "AUC(0-t) at 2 h", "setting": "[1]", "result": 71.2, "unit": "ng·h/mL"}, {"measurement": "AUC(0-t) at 1 h", "setting": "[2]", "result": 27.6, "unit": "ng·h/mL"}, {"measurement": "AUC(0-t) at 2 h", "setting": "[3]", "result": 3.48, "unit": "ng·h/mL"}, {"measurement": "AUC(0-t) at 2 h", "setting": "[4]", "result": 409, "unit": "ng·h/mL"}, {"measurement": "AUC(0-inf)", "setting": "[5]", "result": 441, "unit": "ng·h/mL"}, {"measurement": "AUC(0-t) at 2 h", "setting": "[6]", "result": 11.3, "unit": "ng·h/mL"}, {"measurement": "AUC(0-inf)", "setting": "[7]", "result": 11.9, "unit": "ng·h/mL"}, {"measurement": "Kp", "setting": "[8]", "result": 0.26}, {"measurement": "Ratio", "setting": "Nucleic Acid [9]", "result": 0.35}, {"measurement": "Ratio", "setting": "[10]", "result": 0.67}, {"measurement": "Kp uu", "setting": "[11]", "result": 0.23}, {"measurement": "fraction unbound", "setting": "[12]", "result": 0.084}, {"measurement": "fraction unbound", "setting": "[13]", "result": 0.0919}, {"measurement": "fraction unbound", "setting": "[14]", "result": 0.083}, {"measurement": "fraction unbound", "setting": "[15]", "result": 0.0809}, {"measurement": "AUC(0-t) at 2 h", "setting": "[16]", "result": 108, "unit": "ng·h/mL"}, {"measurement": "AUC(0-inf)", "setting": "[17]", "result": 130, "unit": "ng·h/mL"}, {"measurement": "Ratio", "setting": "[18]", "result": 1.67}, {"measurement": "Kp uu", "setting": "[19]", "result": 0.89}, {"measurement": "Kp uu", "setting": "[20]", "result": 0.99}, {"measurement": "AUC(0-t) at 1 h", "setting": "[21]", "result": 1.14, "unit": "ng·h/mL"}, {"measurement": "AUC(0-t) at 2 h", "setting": "[22]", "result": 72, "unit": "ng·h/mL"}, {"measurement": "AUC(0-t) at 1 h", "setting": "[23]", "result": 22.6, "unit": "ng·h/mL"}, {"measurement": "Kp", "setting": "[24]", "result": 0.82}, {"measurement": "Kp", "setting": "[25]", "result": 1.01}, {"measurement": "Ratio", "setting": "Nucleic Acid [26]", "result": 0.49}, {"measurement": "Ratio", "setting": "[27]", "result": 1.82}]}
